In patent US20250223281A1, “ANTIDIABETIC COMPOUNDS AND COMPOSITIONS” (REZUBIO PHARMACEUTICALS CO., LTD, priority 2022, published 2025):

Biological target: T1, GPR40 (Homo sapiens, UniProt O14842)
T1 construct: expressed in transfected cells; host or cells: HEK293 cells stably expressing GPR40 (Hygromycin selection)
Test: IP1 accumulation assay in HEK293 cells stably expressing GPR40
Type: cell-based
In short: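 HEK293 cells stably expressing human GPR40 were incubated with compounds (10-point, 3-fold dilution series) for 2 h at 37 °C, then IP1 was detected by HTRF (665/615 nm ratio). Effect was normalised to DMSO blank and AMG-1638 as 100%, and EC50 was derived from dose curves.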

[1] = IP1 accumulation, HEK293 cells stably expressing GPR40, 2 hours at 37° C., % effect relative to AMG-1638, table of Biological Example 1
[2] = Tables A-1a to A-7b (structure-property relationship), obtained by methods of Biological Example 1
[3] = Table A-8 (additional examples), obtained by methods of Biological Example 1

T1 sequence (O14842 whole entry): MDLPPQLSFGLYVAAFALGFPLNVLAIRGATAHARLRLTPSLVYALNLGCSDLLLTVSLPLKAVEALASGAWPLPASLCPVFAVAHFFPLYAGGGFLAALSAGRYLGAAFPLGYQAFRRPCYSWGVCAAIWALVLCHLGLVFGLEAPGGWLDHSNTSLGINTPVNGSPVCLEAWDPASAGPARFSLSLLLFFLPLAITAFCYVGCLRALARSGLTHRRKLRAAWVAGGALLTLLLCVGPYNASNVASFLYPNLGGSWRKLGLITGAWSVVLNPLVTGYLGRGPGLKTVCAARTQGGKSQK

Row | SMILES | EC50 [1] [nM] | EC50 [2] [nM] | EC50 [3] [nM]
1 | COc1ccc(F)c(-c2ccc(COc3cccc([C@@H](CC(=O)O)C4CC4)c3)cc2CC(C)(C)Cc2cn(CCCCCCCCCC(=O)NCCN(CCC(=O)NCCN)CCC(=O)NCCN)nn2)c1 [Example 135] | 3700 | > 3700 | 
2 | COc1ccc(F)c(-c2ccc(COc3cccc([C@@H](CC(=O)O)C4CC4)c3)cc2OC(C)(C)Cn2cc(CCCCCCCCC(=O)NCCN(CCC(=O)NCCN)CCC(=O)NCCN)nn2)c1 [Example 136] | 1230 |  | 
3 | COc1ccc(F)c(-c2ccc(COc3cccc([C@@H](CC(=O)O)C4CC4)c3)cc2OC(C)(C)Cn2cc(CCCCCCCCCCC(=O)NCCN(CCC(=O)NCCN)CCC(=O)NCCN)nn2)c1 [Example 137] | 2600 |  | 
4 | COc1ccc(F)c(-c2ccc(COc3cccc([C@@H](CC(=O)O)C4CC4)c3)cc2OC(C)(C)Cn2cc(CCCCCCCCCCCCCCC(=O)NCCN(CCC(=O)NCCN)CCC(=O)NCCN)nn2)c1 [Example 138] | 6.87 |  | 
5 | COc1ccc(F)c(-c2ccc(COc3cccc([C@@H](CC(=O)O)C4CC4)c3)cc2OC(C)(C)Cn2cc(CCCCCCCCCCCCCCC(=O)NCC[N+](C)(CCC(=O)NCCN)CCC(=O)NCCN)nn2)c1 [Example 139] | 8.54 |  | 
6 | COc1ccc(F)c(-c2ccc(COc3cccc([C@@H](CC(=O)O)C4CC4)c3)cc2OC(C)(C)Cn2cc(CCCCCCCCC(=O)NCC[N+](C)(CCC(=O)NCCN)CCC(=O)NCCN)nn2)c1 [Example 140] | > 10000 |  | 
7 | COc1ccc(F)c(-c2ccc(COc3cccc([C@@H](CC(=O)O)C4CC4)c3)cc2OC(C)(C)Cn2cc(CCCCCCCCCCC(=O)NCC[N+](C)(CCC(=O)NCCN)CCC(=O)NCCN)nn2)c1 [Example 141] | 1650 |  | 
8 | COc1ccc(F)c(-c2ccc(COc3cccc([C@@H](CC(=O)O)C4CC4)c3)cc2OC(C)(C)Cn2cc(CCCCCCCCCCCCCC(=O)NCC[N+](C)(CCC(=O)NCCN)CCC(=O)NCCN)nn2)c1 [Example 142] | 30.7 |  | 
9 | COc1ccc(F)c(-c2ccc(COc3cccc([C@@H](CC(=O)O)C4CC4)c3)cc2C(C)(C)c2cn(CCCCCCCCCC(=O)NCC[N+](C)(CCC(=O)NCCN)CCC(=O)NCCN)nn2)c1 [Example 143] | > 10000 |  | 
10 | COc1ccc(F)c(-c2ccc(COc3cccc([C@@H](CC(=O)O)C4CC4)c3)cc2CC(C)(C)Cn2cc(CCCCCCCCC(=O)NCC[N+](C)(CCC(=O)NCCN)CCC(=O)NCCN)nn2)c1 [Example 144] | 5170 | 5170 | 
11 | C[C@H](C(=O)O)[C@H](c1ccc2c(c1)O[C@@H](C1CCN(Cc3cc(-n4cc(CCCCCCCCCCCCCCCCCC(=O)NCCCN(C)CC(=O)NCCN)nn4)ccc3OC(F)(F)F)CC1)CC2)C1CC1 [Example 145] | 0.19 |  | 
12 | C[C@H](C(=O)O)[C@H](c1ccc2c(c1)O[C@@H](C1CCN(Cc3cc(-n4cc(CCCCCCCCCCCCCCCCCC(=O)NCCC[N+](C)(C)CC(=O)NCCN)nn4)ccc3OC(F)(F)F)CC1)CC2)C1CC1 [Example 146] | 0.12 |  | 
13 | COc1ccc(F)c(-c2ccc(COc3cccc([C@@H](CC(=O)O)C4CC4)c3)cc2CC(C)(C)Cn2cc(CCCCCCCCCCCCCCCCCC(=O)NCCCN(C)CC(=O)NCCN)nn2)c1 [Example 147] | 0.62 |  | 
14 | COc1ccc(F)c(-c2ccc(COc3cccc([C@@H](CC(=O)O)C4CC4)c3)cc2CC(C)(C)Cn2cc(CCCCCCCCCCCCCCCCCC(=O)NCCC[N+](C)(C)CC(=O)NCCN)nn2)c1 [Example 148] | 0.43 |  | 
15 | COc1ccc(C(=O)N(CC(C)(C)CCCCCCn2cc(CCCCCCCCCCCCCCCCCC(=O)NCCCN(C)CC(=O)NCCN)nn2)c2cccc(C)n2)c(N2CCC(COc3cc([C@@H](CC(=O)O)C4CC4)ccn3)CC2)c1 [Example 149] | 0.09 |  | 
16 | COc1ccc(C(=O)N(CC(C)(C)CCn2cc(CCCCCCCCCCCCCCCCCC(=O)NCCCN(C)CC(=O)NCCN)nn2)c2cccc(C)n2)c(N2CCC(COc3cc([C@@H](CC(=O)O)C4CC4)ccn3)CC2)c1 [Example 150] | 0.07 |  | 
17 | COc1ccc(C(=O)N(CC(C)(C)CCn2cc(CCCCCCCCCCCCCCCCCC(=O)NCCC[N+](C)(C)CC(=O)NCCN)nn2)c2cccc(C)n2)c(N2CCC(COc3cc([C@@H](CC(=O)O)C4CC4)ccn3)CC2)c1 [Example 151] | 0.05 |  | 
18 | COc1ccc(F)c(-c2ccc(COc3cccc([C@@H](CC(=O)O)C4CC4)c3)cc2CC(C)(C)Cn2cc(CCCCCCCCCCCCCC(=O)NCCCN(CC(=O)NCCN)CC(=O)NCCN)nn2)c1 [Example 152] | 34.4 |  | 
19 | COc1ccc(F)c(-c2ccc(COc3cccc([C@@H](CC(=O)O)C4CC4)c3)cc2CC(C)(C)Cn2cc(CCCCCCCCCCCCCCCC(=O)NCCCN(CC(=O)NCCN)CC(=O)NCCN)nn2)c1 [Example 153] | 6.64 |  | 
20 | COc1ccc(F)c(-c2ccc(COc3cccc([C@@H](CC(=O)O)C4CC4)c3)cc2CC(C)(C)Cn2cc(CCCCCCCCCCCCCCCCCC(=O)NCCCN(CC(=O)NCCN)CC(=O)NCCN)nn2)c1 [Example 154] | 1.04 |  | 

Row | SMILES | EC50 [1] [nM] | EC50 [2] [nM] | EC50 [3] [nM]
21 | COc1ccc(F)c(-c2ccc(COc3cccc([C@@H](CC(=O)O)C4CC4)c3)cc2CC(C)(C)Cn2cc(CCCCCCCCCCCCCC(=O)NCCC[N+](C)(CC(=O)NCCN)CC(=O)NCCN)nn2)c1 [Example 155] | 18.8 |  | 
22 | COc1ccc(F)c(-c2ccc(COc3cccc([C@@H](CC(=O)O)C4CC4)c3)cc2CC(C)(C)Cn2cc(CCCCCCCCCCCCCCCC(=O)NCCC[N+](C)(CC(=O)NCCN)CC(=O)NCCN)nn2)c1 [Example 156] | 2.53 |  | 
23 | COc1ccc(F)c(-c2ccc(COc3cccc([C@@H](CC(=O)O)C4CC4)c3)cc2CC(C)(C)Cn2cc(CCCCCCCCCCCCCCCCCC(=O)NCCC[N+](C)(CC(=O)NCCN)CC(=O)NCCN)nn2)c1 [Example 157] | 0.54 |  | 
24 | COc1ccc(F)c(-c2ccc(COc3cccc([C@@H](CC(=O)O)C4CC4)c3)cc2C(C)(C)Cn2cc(CCCCCCCCCCCCCCCCCC(=O)NCC[N+](C)(CCC(=O)NCCN)CCC(=O)NCCN)nn2)c1 [Example 158] | 8.97 |  | 
25 | COc1ccc(C(=O)N(CC(C)(C)CCn2cc(COCCOCCOCC(=O)NCCN(CCC(=O)NCCN)CCC(=O)NCCN)nn2)c2cccc(C)n2)c(N2CCC(COc3cc([C@@H](CC(=O)O)C4CC4)ccn3)CC2)c1 [Example 159] | > 6000 |  | > 6000
26 | COc1ccc(C(=O)N(CC(C)(C)CCn2cc(COCCOCCOCCOCCOCC(=O)NCCN(CCC(=O)NCCN)CCC(=O)NCCN)nn2)c2cccc(C)n2)c(N2CCC(COc3cc([C@@H](CC(=O)O)C4CC4)ccn3)CC2)c1 [Example 161] | 2200 |  | 2200
27 | COc1ccc(C(=O)N(CC(C)(C)CCn2cc(COCCOCCOCC(=O)NCC[N+](C)(CCC(=O)NCCN)CCC(=O)NCCN)nn2)c2cccc(C)n2)c(N2CCC(COc3cc([C@@H](CC(=O)O)C4CC4)ccn3)CC2)c1 [Example 162] | 1250 |  | 1250
28 | COc1ccc(C(=O)N(CC(C)(C)CCn2cc(COCCOCCOCCOCC(=O)NCC[N+](C)(CCC(=O)NCCN)CCC(=O)NCCN)nn2)c2cccc(C)n2)c(N2CCC(COc3cc(C(CC(=O)O)C4CC4)ccn3)CC2)c1 (centres unmarked) [Example 163] | > 5000 |  | > 5000
29 | COc1ccc(C(=O)N(CC(C)(C)CCn2cc(COCCOCCOCCOCCOCC(=O)NCC[N+](C)(CCC(=O)NCCN)CCC(=O)NCCN)nn2)c2cccc(C)n2)c(N2CCC(COc3cc([C@@H](CC(=O)O)C4CC4)ccn3)CC2)c1 [Example 164] | 1330 |  | 1330
30 | COc1ccc(F)c(-c2ccc(COc3cccc([C@@H](CC(=O)O)C4CC4)c3)cc2CC(C)(C)Cn2cc(COCCOCCOCC(=O)NCCN(CCC(=O)NCCN)CCC(=O)NCCN)nn2)c1 [Example 165] | > 10000 |  | > 10000
31 | COc1ccc(F)c(-c2ccc(COc3cccc([C@@H](CC(=O)O)C4CC4)c3)cc2CC(C)(C)Cn2cc(COCCOCCOCCOCC(=O)NCCN(CCC(=O)NCCN)CCC(=O)NCCN)nn2)c1 [Example 166] | > 10000 |  | > 10000
32 | COc1ccc(F)c(-c2ccc(COc3cccc([C@@H](CC(=O)O)C4CC4)c3)cc2CC(C)(C)Cn2cc(COCCOCCOCCOCCOCC(=O)NCCN(CCC(=O)NCCN)CCC(=O)NCCN)nn2)c1 [Example 167] | > 10000 |  | > 10000
33 | COc1ccc(F)c(-c2ccc(COc3cccc([C@@H](CC(=O)O)C4CC4)c3)cc2CC(C)(C)Cn2cc(COCCOCCOCC(=O)NCC[N+](C)(CCC(=O)NCCN)CCC(=O)NCCN)nn2)c1 [Example 168] | > 10000 |  | > 10000
34 | COc1ccc(F)c(-c2ccc(COc3cccc([C@@H](CC(=O)O)C4CC4)c3)cc2CC(C)(C)Cn2cc(COCCOCCOCCOCC(=O)NCC[N+](C)(CCC(=O)NCCN)CCC(=O)NCCN)nn2)c1 [Example 169] | > 10000 |  | > 10000
35 | COc1ccc(F)c(-c2ccc(COc3cccc([C@@H](CC(=O)O)C4CC4)c3)cc2CC(C)(C)Cn2cc(COCCOCCOCCOCCOCC(=O)NCC[N+](C)(CCC(=O)NCCN)CCC(=O)NCCN)nn2)c1 [Example 170] | 200 |  | > 200
36 | C[C@H](C(=O)O)[C@H](c1ccc2c(c1)O[C@@H](C1CCN(Cc3cc(-n4cc(COCCOCCOCC(=O)NCCN(CCC(=O)NCCN)CCC(=O)NCCN)nn4)ccc3OC(F)(F)F)CC1)CC2)C1CC1 [Example 171] | > 10000 |  | > 10000
37 | C[C@H](C(=O)O)[C@H](c1ccc2c(c1)O[C@@H](C1CCN(Cc3cc(-n4cc(COCCOCCOCCOCC(=O)NCCN(CCC(=O)NCCN)CCC(=O)NCCN)nn4)ccc3OC(F)(F)F)CC1)CC2)C1CC1 [Example 172] | 5240 |  | 5240
38 | C[C@H](C(=O)O)[C@H](c1ccc2c(c1)O[C@@H](C1CCN(Cc3cc(-n4cc(COCCOCCOCCOCCOCC(=O)NCCN(CCC(=O)NCCN)CCC(=O)NCCN)nn4)ccc3OC(F)(F)F)CC1)CC2)C1CC1 [Example 173] | > 10000 |  | > 10000
39 | C[C@H](C(=O)O)[C@H](c1ccc2c(c1)O[C@@H](C1CCN(Cc3cc(-n4cc(COCCOCCOCC(=O)NCC[N+](C)(CCC(=O)NCCN)CCC(=O)NCCN)nn4)ccc3OC(F)(F)F)CC1)CC2)C1CC1 [Example 174] | > 10000 |  | > 10000
